The source made the active and inactive calls. The rule behind the calls is not given here.
Test system: rodent lifetime carcinogenesis bioassay, tumor incidence TD50
Assay: carcinogenic potency in animals, long-term in vivo studies, CPDB compilation (AID 1745844)
[1] = mouse, strain B6C3F1, females, in feed, site: any site (literature study), lesion: several types, types named in the paper, dosed 103 weeks, study length 104 weeks
[2] = rat, strain Fischer 344, males, in feed, site: any site (literature study), lesion: several types, types named in the paper, dosed 103 weeks, study length 104 weeks

C[C@](N)(Cc1ccc(O)c(O)c1)C(=O)O
carcinogen call [1]: negative (inactive) | TD50 (mouse, strain B6C3F1, females, in feed, site: lung, lesion: alveolar/bronchiolar adenoma + alveolar/bronchiolar carcinoma, dosed 103 weeks, study length 104 weeks): 25000 mg/kg/day | TD50 (mouse, strain B6C3F1, males, in feed, site: kidney, lesion: tubular-cell adenoma + tubular-cell adenocarcinoma, dosed 103 weeks, study length 104 weeks): 20100 mg/kg/day | TD50 (rat, strain Fischer 344, females, in feed, site: any site (literature study), lesion: several types, types named in the paper, dosed 103 weeks, study length 104 weeks): 592 mg/kg/day (inactive) | carcinogen call [2]: negative (inactive)

OC[C@@H](O)[C@H]1O[C@@H]2O[C@H](C(Cl)(Cl)Cl)O[C@@H]2[C@H]1O
TD50 (mouse, strain B6AKF1, females, oral dosing, site: any site (literature study), lesion: several types, types named in the paper, dosed 76 weeks, study length 76 weeks): 17.3 mg/kg/day (inactive) | carcinogen call (mouse, strain B6AKF1, females, oral dosing, site: liver, lesion: hepatoma, dosed 76 weeks, study length 76 weeks): negative (inactive) | TD50 (mouse, strain B6AKF1, females, oral dosing, site: lung, lesion: adenoma, dosed 76 weeks, study length 76 weeks): 19.5 mg/kg/day (inactive) | carcinogen call (mouse, strain B6AKF1, males, oral dosing, site: any site (literature study), lesion: several types, types named in the paper, dosed 76 weeks, study length 76 weeks): negative (inactive) | carcinogen call (mouse, strain B6AKF1, males, oral dosing, site: liver, lesion: hepatoma, dosed 76 weeks, study length 76 weeks): negative (inactive) | carcinogen call (mouse, strain B6AKF1, males, oral dosing, site: lung, lesion: adenoma, dosed 76 weeks, study length 76 weeks): negative (inactive) | carcinogen call (mouse, strain B6C3F1, females, oral dosing, site: any site (literature study), lesion: one or several types, types not named, dosed 76 weeks, study length 76 weeks): negative (inactive) | carcinogen call (mouse, strain B6C3F1, females, oral dosing, site: liver, lesion: hepatoma, dosed 76 weeks, study length 76 weeks): negative (inactive) | carcinogen call (mouse, strain B6C3F1, females, oral dosing, site: lung, lesion: several types, types named in the paper, dosed 76 weeks, study length 76 weeks): negative (inactive) | TD50 (mouse, strain B6C3F1, males, oral dosing, site: any site (literature study), lesion: several types, types named in the paper, dosed 76 weeks, study length 76 weeks): 4.07 mg/kg/day (inactive) | TD50 (mouse, strain B6C3F1, males, oral dosing, site: liver, lesion: hepatoma, dosed 76 weeks, study length 76 weeks): 7.27 mg/kg/day (inactive) | TD50 (mouse, strain B6C3F1, males, oral dosing, site: lung, lesion: adenoma, dosed 76 weeks, study length 76 weeks): 11.2 mg/kg/day (inactive)

CNCCc1ccc(OC(=O)C(C)C)c(OC(=O)C(C)C)c1
carcinogen call (rat, strain Charles River CD (Sprague-Dawley), females, by gavage, site: adrenal gland, lesion: cortical adenoma, dosed 104 weeks, study length 104 weeks): negative (inactive) | carcinogen call (rat, strain Charles River CD (Sprague-Dawley), females, by gavage, site: adrenal gland, lesion: pheochromocytoma, malignant, dosed 104 weeks, study length 104 weeks): negative (inactive) | carcinogen call (rat, strain Charles River CD (Sprague-Dawley), females, by gavage, site: mammary gland, lesion: adenocarcinoma, dosed 104 weeks, study length 104 weeks): negative (inactive) | carcinogen call (rat, strain Charles River CD (Sprague-Dawley), females, by gavage, site: mammary gland, lesion: adenoma, dosed 104 weeks, study length 104 weeks): negative (inactive) | carcinogen call (rat, strain Charles River CD (Sprague-Dawley), females, by gavage, site: pituitary gland, lesion: adenoma, dosed 104 weeks, study length 104 weeks): negative (inactive) | carcinogen call (rat, strain Charles River CD (Sprague-Dawley), males, by gavage, site: adrenal gland, lesion: cortical adenoma, dosed 104 weeks, study length 104 weeks): negative (inactive) | carcinogen call (rat, strain Charles River CD (Sprague-Dawley), males, by gavage, site: adrenal gland, lesion: pheochromocytoma, malignant, dosed 104 weeks, study length 104 weeks): negative (inactive) | TD50 (rat, strain Charles River CD (Sprague-Dawley), males, by gavage, site: pituitary gland, lesion: adenoma, dosed 104 weeks, study length 104 weeks): 30.2 mg/kg/day (inactive)

C/C1=C\C=C(\C(C)C)[C@@H](O)C/C(C)=C/CC/C(C)=C/CC1
carcinogen call (mouse, strain C3H/HeN, males, in feed, site: liver, lesion: hepatoma, dosed 65 weeks, study length 65 weeks): negative (inactive)

COc1cc(/C=C/C(=O)O[C@H]2CC[C@]34C[C@]35CC[C@]3(C)[C@@H]([C@H](C)CCC=C(C)C)CC[C@@]3(C)[C@@H]5CC[C@H]4C2(C)C)ccc1O
TD50 (mouse, strain B6C3F1, females, in feed, site: all sites, lesion: malignant lymphoma, dosed 78 weeks, study length 79 weeks): 5970 mg/kg/day (inactive) | carcinogen call (mouse, strain B6C3F1, females, in feed, site: liver, lesion: hepatocellular carcinoma, dosed 78 weeks, study length 79 weeks): negative (inactive) | carcinogen call (mouse, strain B6C3F1, females, in feed, site: liver, lesion: neoplastic nodule, dosed 78 weeks, study length 79 weeks): negative (inactive) | carcinogen call (mouse, strain B6C3F1, females, in feed, site: lung, lesion: alveolar/bronchiolar adenoma, dosed 78 weeks, study length 79 weeks): negative (inactive) | TD50 (mouse, strain B6C3F1, males, in feed, site: all sites, lesion: malignant lymphoma, dosed 78 weeks, study length 79 weeks): 15900 mg/kg/day (inactive) | carcinogen call (mouse, strain B6C3F1, males, in feed, site: liver, lesion: hepatocellular carcinoma, dosed 78 weeks, study length 79 weeks): negative (inactive) | carcinogen call (mouse, strain B6C3F1, males, in feed, site: liver, lesion: neoplastic nodule, dosed 78 weeks, study length 79 weeks): negative (inactive) | carcinogen call (mouse, strain B6C3F1, males, in feed, site: lung, lesion: alveolar/bronchiolar adenocarcinoma, dosed 78 weeks, study length 79 weeks): negative (inactive) | carcinogen call (mouse, strain B6C3F1, males, in feed, site: lung, lesion: alveolar/bronchiolar adenoma, dosed 78 weeks, study length 79 weeks): negative (inactive) | carcinogen call (rat, strain F344/DuCrj, females, in feed, site: liver, lesion: neoplastic nodule, dosed 104 weeks, study length 105 weeks): negative (inactive) | TD50 (rat, strain F344/DuCrj, males, in feed, site: liver, lesion: neoplastic nodule, dosed 104 weeks, study length 105 weeks): 68500 mg/kg/day (inactive)

O=NN1CCC(=O)NC1=O
TD50 (rat, strain MRC-Wistar, females, in drinking water, site: any site (literature study), lesion: several types, types named in the paper, dosed 41 weeks, study length 70 weeks): 0.13 mg/kg/day | TD50 (rat, strain MRC-Wistar, females, in drinking water, site: liver, lesion: hepatocellular carcinoma, dosed 41 weeks, study length 70 weeks): 0.104 mg/kg/day | TD50 (rat, strain MRC-Wistar, females, in drinking water, site: liver, lesion: several types, types named in the paper, dosed 41 weeks, study length 70 weeks): 0.104 mg/kg/day | TD50 (rat, strain MRC-Wistar, males, in drinking water, site: any site (literature study), lesion: several types, types named in the paper, dosed 41 weeks, study length 70 weeks): 0.125 mg/kg/day | TD50 (rat, strain MRC-Wistar, males, in drinking water, site: liver, lesion: hepatocellular carcinoma, dosed 41 weeks, study length 70 weeks): 0.0932 mg/kg/day | TD50 (rat, strain MRC-Wistar, males, in drinking water, site: liver, lesion: several types, types named in the paper, dosed 41 weeks, study length 70 weeks): 0.0932 mg/kg/day

O=c1c(O)c(-c2ccc(O)cc2)oc2cc(O)cc(O)c12
TD50 (rat, strain ACI, females, in feed, site: any site (literature study), lesion: several types, types named in the paper, dosed 77 weeks, study length 77 weeks): 55.3 mg/kg/day (inactive) | TD50 (rat, strain ACI, males, in feed, site: adrenal gland, lesion: cortical adenoma, dosed 77 weeks, study length 77 weeks): 17.9 mg/kg/day (inactive)

CCNC(=S)NCC
carcinogen call [1]: negative (inactive) | TD50 (mouse, strain B6C3F1, females, in feed, site: liver, lesion: hepatocellular adenoma + hepatocellular carcinoma + neoplastic nodule, dosed 103 weeks, study length 104 weeks): 687 mg/kg/day | carcinogen call (mouse, strain B6C3F1, males, in feed, site: any site (literature study), lesion: several types, types named in the paper, dosed 103 weeks, study length 104 weeks): negative (inactive) | TD50 (rat, strain F344/DuCrj, males, in feed, site: thyroid gland, lesion: follicular-cell carcinoma, dosed 52 weeks, study length 52 weeks): 28.1 mg/kg/day | TD50 (rat, strain Fischer 344, females, in feed, site: any site (literature study), lesion: several types, types named in the paper, dosed 104 weeks, study length 104 weeks): 21.5 mg/kg/day | TD50 (rat, strain Fischer 344, females, in feed, site: thyroid gland, lesion: follicular-cell adenoma + follicular-cell carcinoma, dosed 104 weeks, study length 104 weeks): 23.8 mg/kg/day | TD50 (rat, strain Fischer 344, females, in feed, site: thyroid gland, lesion: follicular-cell carcinoma, dosed 104 weeks, study length 104 weeks): 57.9 mg/kg/day | TD50 [2]: 12.9 mg/kg/day | TD50 (rat, strain Fischer 344, males, in feed, site: thyroid gland, lesion: follicular-cell adenoma + follicular-cell carcinoma, dosed 103 weeks, study length 104 weeks): 24.3 mg/kg/day | TD50 (rat, strain Fischer 344, males, in feed, site: thyroid gland, lesion: follicular-cell carcinoma, dosed 103 weeks, study length 104 weeks): 33.6 mg/kg/day

CCC1C(=O)OCC1Cc1cncn1C (configuration not stated)
TD50 (rat, strain Sprague-Dawley, females, i.p., site: any site (literature study), lesion: malignant tumor, dosed 104 weeks, study length 104 weeks): 98.4 mg/kg/day (inactive) | TD50 (rat, strain Sprague-Dawley, males, i.p., site: any site (literature study), lesion: malignant tumor, dosed 104 weeks, study length 104 weeks): 1750 mg/kg/day (inactive)

Source: PubChem BioAssay AID1745844 (Carcinogenic Potency Database (CPDB), 2022)
